Literature values as cited in EP1941860A1, “Topical formulations” (ACO Hud Nordic AB, priority 2006, dated 2008).

Details: in prior art formulations

SMILES: CC(O)C(=O)O (stereo not shown) [lactic acid]
- concentration producing a stinging action: about 0.5 % by weight of the formulation
